Laboratory results from ChEMBL document CHEMBL1201862, “PubChem BioAssay data set” (2004).
Calls of active or inactive are those of the source.

Columns and labels:
[1] = target: T1, Rac GTPase-activating protein 1 (Homo sapiens, UniProt Q9H0H5); assay: MgcRacGAP GTPase-activating activity inhibitors, confirmation, biochemical, ADP Hunter fluorescence, primary and confirmatory (AID 624330); type: functional
T1 sequence (Q9H0H5 whole entry): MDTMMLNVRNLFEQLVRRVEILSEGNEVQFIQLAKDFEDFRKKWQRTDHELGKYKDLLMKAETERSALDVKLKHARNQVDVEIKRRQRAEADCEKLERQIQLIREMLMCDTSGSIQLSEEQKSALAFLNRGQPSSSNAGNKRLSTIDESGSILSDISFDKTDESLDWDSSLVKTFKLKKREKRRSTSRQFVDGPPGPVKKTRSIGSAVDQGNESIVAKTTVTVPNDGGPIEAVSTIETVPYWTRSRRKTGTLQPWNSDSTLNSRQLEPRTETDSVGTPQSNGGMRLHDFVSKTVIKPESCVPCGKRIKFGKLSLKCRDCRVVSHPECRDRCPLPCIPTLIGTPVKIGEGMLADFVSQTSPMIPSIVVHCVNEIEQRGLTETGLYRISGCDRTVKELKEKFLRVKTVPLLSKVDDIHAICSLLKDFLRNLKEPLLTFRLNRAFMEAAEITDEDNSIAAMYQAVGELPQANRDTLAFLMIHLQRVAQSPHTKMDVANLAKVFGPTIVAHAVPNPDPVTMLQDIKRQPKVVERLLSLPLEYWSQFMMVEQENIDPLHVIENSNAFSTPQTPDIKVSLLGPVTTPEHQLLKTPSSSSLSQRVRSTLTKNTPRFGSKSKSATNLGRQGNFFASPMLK

[2] = target: Cytochrome P450 2C9 (Homo sapiens, UniProt P11712)
[3] = target: T2, Cytochrome P450 1A2 (Homo sapiens, UniProt P05177);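 note: PubChem cytochrome P450 panel assay, CYP1A2 panel member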
T2 sequence (P05177 whole entry): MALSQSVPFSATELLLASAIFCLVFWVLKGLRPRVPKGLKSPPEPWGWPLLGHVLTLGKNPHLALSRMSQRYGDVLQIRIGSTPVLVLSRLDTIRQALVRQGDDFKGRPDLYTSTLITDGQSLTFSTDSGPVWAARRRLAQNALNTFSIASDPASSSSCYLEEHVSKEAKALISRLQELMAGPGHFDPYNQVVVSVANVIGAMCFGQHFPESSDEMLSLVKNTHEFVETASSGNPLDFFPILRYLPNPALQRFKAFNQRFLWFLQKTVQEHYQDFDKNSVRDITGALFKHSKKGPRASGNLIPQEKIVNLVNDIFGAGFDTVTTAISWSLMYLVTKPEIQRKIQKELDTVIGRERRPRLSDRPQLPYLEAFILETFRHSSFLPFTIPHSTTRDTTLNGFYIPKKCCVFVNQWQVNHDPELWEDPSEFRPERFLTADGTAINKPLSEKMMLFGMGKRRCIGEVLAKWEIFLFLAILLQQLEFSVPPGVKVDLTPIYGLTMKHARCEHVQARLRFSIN

[4] = target: T3, Corticotropin-releasing factor receptor 2/Corticotropin-releasing factor-binding protein (Homo sapiens, UniProt P24387+Q13324); assay: activators of CRF receptor 2 with binding protein – uHTS hits, confirmation (AID 602473); type: functional; settings: read-out: EC50_Mean
T3 sequence (Q13324 whole entry): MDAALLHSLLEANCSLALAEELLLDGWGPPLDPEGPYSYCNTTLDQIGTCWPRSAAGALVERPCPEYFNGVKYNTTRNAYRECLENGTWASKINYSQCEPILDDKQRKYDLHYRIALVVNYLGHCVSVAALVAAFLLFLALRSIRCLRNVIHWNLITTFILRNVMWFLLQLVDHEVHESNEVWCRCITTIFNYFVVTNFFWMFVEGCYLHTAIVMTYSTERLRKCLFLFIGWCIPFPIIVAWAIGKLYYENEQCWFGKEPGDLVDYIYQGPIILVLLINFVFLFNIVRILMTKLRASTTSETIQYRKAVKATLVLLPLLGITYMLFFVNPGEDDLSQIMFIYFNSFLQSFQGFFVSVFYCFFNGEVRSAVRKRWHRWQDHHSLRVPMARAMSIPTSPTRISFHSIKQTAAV
T3 sequence (P24387 whole entry): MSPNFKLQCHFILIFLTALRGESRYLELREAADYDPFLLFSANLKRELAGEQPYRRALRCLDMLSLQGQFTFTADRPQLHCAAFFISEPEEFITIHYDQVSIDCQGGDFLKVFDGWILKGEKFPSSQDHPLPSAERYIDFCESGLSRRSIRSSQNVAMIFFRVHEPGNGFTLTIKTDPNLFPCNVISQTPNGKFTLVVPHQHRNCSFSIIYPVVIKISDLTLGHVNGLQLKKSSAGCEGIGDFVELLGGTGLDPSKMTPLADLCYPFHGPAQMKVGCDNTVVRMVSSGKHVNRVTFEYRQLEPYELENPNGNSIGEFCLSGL

[5] = HEp-2 cell cytotoxicity, dose response, cytotoxicity control for RSV inhibitor project, HTS (AID 2410); type: functional; settings: human respiratory syncytial virus
[6] = target: Cytochrome P450 2C19 (Homo sapiens, UniProt P33261); assay: Cytochrome panel assay with activity outcomes. Panel member name: p450-cyp2c19 Compounds with AC50 equal or less than 10 uM are considered active; type: functional; settings: read-out: AC50
[7] = target: T4, RNA-binding protein pos-1 (Caenorhabditis elegans, UniProt G5EF15); assay: inhibitors of POS-1/mex-3 RNA binding, dose response, biochemical, fluorescence polarization (AID 1964);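 note: purified POS-1 fused to maltose binding protein made in E. coli; potency of compounds blocking POS-1 binding to fluorescent RNA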
T4 sequence (G5EF15 whole entry): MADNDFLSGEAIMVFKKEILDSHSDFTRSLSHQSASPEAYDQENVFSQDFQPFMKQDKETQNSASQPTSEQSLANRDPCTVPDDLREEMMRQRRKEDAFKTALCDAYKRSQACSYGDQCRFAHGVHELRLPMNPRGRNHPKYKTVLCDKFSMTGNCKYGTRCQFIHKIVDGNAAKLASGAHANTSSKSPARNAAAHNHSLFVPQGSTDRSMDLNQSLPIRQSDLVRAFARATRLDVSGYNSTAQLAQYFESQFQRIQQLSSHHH

[8] = target: T5, Protein RecA (Mycobacterium tuberculosis, UniProt P9WHJ3); assay: Fluorescence Cell-Free Homogeneous Dose Retest to Identify Inhibitors of RecA-Intein Splicing Activity. [Related pubchem assays (depositor defined):AID2097, AID2223, AID489010, AID492950]; type: functional
T5 sequence (P9WHJ3 whole entry): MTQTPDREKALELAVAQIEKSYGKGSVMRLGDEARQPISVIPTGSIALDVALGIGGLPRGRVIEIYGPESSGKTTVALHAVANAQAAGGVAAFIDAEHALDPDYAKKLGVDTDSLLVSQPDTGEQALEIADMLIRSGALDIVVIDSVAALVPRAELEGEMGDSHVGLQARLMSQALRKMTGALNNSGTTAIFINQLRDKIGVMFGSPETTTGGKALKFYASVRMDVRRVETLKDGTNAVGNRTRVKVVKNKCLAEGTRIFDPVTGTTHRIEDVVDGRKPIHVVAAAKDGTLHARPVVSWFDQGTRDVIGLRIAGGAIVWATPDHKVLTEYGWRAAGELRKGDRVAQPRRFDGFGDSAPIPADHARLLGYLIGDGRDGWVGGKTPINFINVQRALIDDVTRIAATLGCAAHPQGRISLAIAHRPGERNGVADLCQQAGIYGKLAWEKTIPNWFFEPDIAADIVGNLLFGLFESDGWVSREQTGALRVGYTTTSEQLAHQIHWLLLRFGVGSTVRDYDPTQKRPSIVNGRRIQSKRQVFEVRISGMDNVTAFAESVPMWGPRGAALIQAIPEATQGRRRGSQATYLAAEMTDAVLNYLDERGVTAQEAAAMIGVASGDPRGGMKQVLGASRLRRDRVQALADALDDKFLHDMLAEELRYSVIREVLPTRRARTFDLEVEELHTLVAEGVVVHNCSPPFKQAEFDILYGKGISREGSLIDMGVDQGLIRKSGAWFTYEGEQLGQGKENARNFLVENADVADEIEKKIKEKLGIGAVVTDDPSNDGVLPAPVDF

[9] = target: T6, Replicative DNA helicase DnaB (Mycobacterium tuberculosis, UniProt P9WMR3); assay: DnaB intein splicing inhibitors, dose response, biochemical, cell-free fluorescence (AID 449749); type: functional
T6 sequence (P9WMR3 whole entry): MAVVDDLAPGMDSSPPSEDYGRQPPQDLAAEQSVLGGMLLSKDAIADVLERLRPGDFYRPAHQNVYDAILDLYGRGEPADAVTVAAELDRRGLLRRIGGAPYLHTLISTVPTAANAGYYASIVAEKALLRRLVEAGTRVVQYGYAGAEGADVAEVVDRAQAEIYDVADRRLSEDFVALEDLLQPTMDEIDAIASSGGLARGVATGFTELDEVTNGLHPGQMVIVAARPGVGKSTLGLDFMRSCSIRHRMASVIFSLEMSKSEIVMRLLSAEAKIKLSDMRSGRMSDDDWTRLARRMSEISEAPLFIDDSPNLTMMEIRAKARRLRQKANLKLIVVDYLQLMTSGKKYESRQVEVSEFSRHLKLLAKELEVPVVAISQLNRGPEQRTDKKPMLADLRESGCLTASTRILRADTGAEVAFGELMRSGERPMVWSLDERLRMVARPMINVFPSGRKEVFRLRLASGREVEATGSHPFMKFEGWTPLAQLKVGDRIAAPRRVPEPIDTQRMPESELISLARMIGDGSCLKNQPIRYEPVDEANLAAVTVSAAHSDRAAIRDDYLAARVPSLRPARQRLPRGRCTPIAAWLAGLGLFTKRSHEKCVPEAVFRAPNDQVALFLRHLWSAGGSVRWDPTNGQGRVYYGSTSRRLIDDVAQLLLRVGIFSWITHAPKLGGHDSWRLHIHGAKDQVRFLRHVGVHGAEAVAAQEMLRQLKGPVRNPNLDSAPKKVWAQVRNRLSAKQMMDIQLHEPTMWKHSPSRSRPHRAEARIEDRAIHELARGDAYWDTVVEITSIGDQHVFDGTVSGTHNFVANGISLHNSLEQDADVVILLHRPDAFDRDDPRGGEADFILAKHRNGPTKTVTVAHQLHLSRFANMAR

Chain of Cytochrome P450 2C9 (P11712 whole entry): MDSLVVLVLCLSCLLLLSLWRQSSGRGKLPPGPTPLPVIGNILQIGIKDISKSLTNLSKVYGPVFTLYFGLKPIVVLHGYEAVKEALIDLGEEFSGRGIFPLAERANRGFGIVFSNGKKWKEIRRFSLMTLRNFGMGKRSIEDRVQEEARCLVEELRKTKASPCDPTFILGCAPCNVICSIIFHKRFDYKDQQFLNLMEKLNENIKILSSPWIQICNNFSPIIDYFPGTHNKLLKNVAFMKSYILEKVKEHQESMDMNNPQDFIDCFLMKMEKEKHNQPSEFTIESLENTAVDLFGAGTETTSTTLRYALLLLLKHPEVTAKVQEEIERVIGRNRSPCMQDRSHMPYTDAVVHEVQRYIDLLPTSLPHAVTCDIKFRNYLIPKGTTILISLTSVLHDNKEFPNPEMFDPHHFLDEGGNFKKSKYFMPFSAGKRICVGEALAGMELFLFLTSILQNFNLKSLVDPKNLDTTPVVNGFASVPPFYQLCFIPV
Chain of Cytochrome P450 2C19 (P33261 whole entry, the tested form may be a part): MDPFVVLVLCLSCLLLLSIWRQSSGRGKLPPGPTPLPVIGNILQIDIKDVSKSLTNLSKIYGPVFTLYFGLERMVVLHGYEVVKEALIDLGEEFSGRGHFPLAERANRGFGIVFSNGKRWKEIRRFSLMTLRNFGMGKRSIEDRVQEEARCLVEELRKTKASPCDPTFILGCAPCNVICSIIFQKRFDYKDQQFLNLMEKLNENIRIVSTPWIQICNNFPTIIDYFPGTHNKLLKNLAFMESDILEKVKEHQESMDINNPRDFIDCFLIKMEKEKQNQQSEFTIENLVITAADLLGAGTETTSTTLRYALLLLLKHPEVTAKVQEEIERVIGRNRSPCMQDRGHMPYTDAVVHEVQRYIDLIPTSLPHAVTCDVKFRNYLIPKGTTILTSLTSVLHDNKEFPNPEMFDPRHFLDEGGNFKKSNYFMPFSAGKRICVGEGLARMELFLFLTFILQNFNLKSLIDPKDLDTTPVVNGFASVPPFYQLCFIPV

Compound	AC50 [2]	CC50 [5]	other results
Cc1oc(-c2ccccc2)cc1C(=O)Nc1ccc(N(C)C)cc1	25.1 µM (inconclusive)		IC50 [1]: 62.3 µM (active)
CCc1cc2c(O)ncnc2s1	28.2 µM (inconclusive)		AC50 [3]: 20 µM (inconclusive)
CC(=O)N1CCc2ccc(S(=O)(=O)N3CCN(C)CC3)cc21			EC50 [4]: > 53 µM (inactive)
Nc1ccc(S(=O)(=O)Nc2cnc3ccccc3n2)cc1 [SULFAQUINOXALINE SODIUM]	10 µM (inconclusive)		
CCN(CC)c1ccc(/C=N/c2sc3c(c2C#N)C2CCN3CC2)c(O)c1		6.56 µM (active)	
COc1ncc2nc(-c3cccs3)c(=O)n(C)c2n1	12.6 µM (inconclusive)		
COc1cc(CC(=O)OC2CCOC2=O)cc(OC)c1OC (configuration not stated)	39.8 µM (inconclusive)		AC50 [6]: 8.91 µM (inconclusive)
CCOc1ccc2nc(NC(=O)COc3ccc(N(C)S(=O)(=O)c4ccc(C)cc4)cc3)sc2c1		1.78 µM (active)	
Oc1ccc(C[C@H]2CNCCN2CCC23CC4CC(CC(C4)C2)C3)cc1		14.2 µM (active)	
COc1cc(OC)cc(C(=O)Nc2ccc(-c3nc4ccccc4o3)c(O)c2)c1		17.6 µM (active)	
Cc1cccc(N2C(=O)/C(=C/c3ccc(N4CCN(C)CC4)o3)C(=O)NC2=S)c1C			EC50 [7]: > 300 µM (inconclusive)
CCc1sc(C(=O)Nc2ccc3c(c2)OCCO3)cc1Br		10.7 µM (active)	
COc1ccccc1CNC(=O)CCCn1nc(C)c2c(C)n(-c3ccc(C)cc3)nc2c1=O		32 µM (active)	
CCCCc1ccc(-c2csc(/C(C#N)=C/c3ccc(C)o3)n2)cc1	3.16 µM (inconclusive)		AC50 [3]: 2 µM (inconclusive)
COC(=O)C1=C(c2ccc(C(C)=O)cc2)C[C@@H]2CC[C@H]1N2C(=O)NCc1ccc(C(F)(F)F)cc1			EC50 [4]: 4.94 µM (active)
O=S(=O)(c1ccc2c(c1)OCCO2)N1CCN(c2cccc(Cl)c2)CC1		34.9 µM (active)	
CCOc1cc(N(CC)CC)ccc1/C=C(/C#N)c1nc2ccccc2[nH]1		21.4 µM (active)	
CCOc1cc(C=C2C(=O)c3ccccc3C2=O)ccc1OCC(=O)Nc1ccc(C)cc1			EC50 [4]: > 53 µM (inactive)
CCNC(=O)CC1C(=O)N(c2ccc(F)cc2)C(=O)N1CCc1ccc(OC)cc1 (configuration not stated)	0.282 µM (inconclusive)		AC50 [6]: 8.91 µM (inconclusive)
Nc1ccc2[nH]c(CCCCc3nc4ccccc4[nH]3)nc2c1			EC50 [8]: 16.9 µM (active); AC50 [9]: > 380 µM (inactive); IC50 [1]: 57.3 µM (active)
CCn1nc(C(=O)Nc2ccccc2N2CCCC2)c2ccccc2c1=O		> 50 µM (active)	
Cc1nc2sccn2c(=O)c1S(=O)(=O)Nc1cccc(Cl)c1C			EC50 [4]: > 53 µM (inactive)
C=CCn1c(=O)c2ccccc2n2c(SCC(=O)N3CCCc4ccccc43)nnc12			EC50 [4]: > 53 µM (inactive)
COc1ccc(/C(O)=C/c2nc3ccccc3n(-c3ccccc3)c2=O)cc1			EC50 [4]: 7.85 µM (active)
O=C(Nc1cccc(S(=O)(=O)N2CCCCC2)c1)c1ccccc1NS(=O)(=O)c1ccc(F)cc1			EC50 [4]: > 53 µM (inactive)
CCOP(=O)(OCC)c1nc(/C=C/c2ccccc2)oc1NCc1ccccc1	4.47 µM (inconclusive)		AC50 [3]: 15.8 µM (inconclusive)
O=C(CCCN1C(=O)c2cccc3cccc(c23)C1=O)N1CCN(Cc2ccc3c(c2)OCO3)CC1		43.7 µM (active)	
Cc1cc(C)c(NC(=O)C[S+]([O-])CC(=O)NCCCc2ccccc2)c(C)c1 (configuration not stated)	28.2 µM (inconclusive)		
O=C(O)[C@@H](S)[C@H](S)C(=O)O	3.98 µM (inconclusive)		
